Assays:
[1] = tested on: 2LMP cells; assay: Cell death by trypan blue dye exclusion; type: cell-based, human; details: for cell death: 48 h
Procedure: (§1) Cell Growth, Cell Death, and Apoptosis: Cell growth inhibition by (−)-gossypol was determined in a water-soluble tetrazolium (WST)-based assay, as described previously (Shangary et al., Proc. Natl. Acad. Sci. USA 105:3933 (2008)). Cell viability was determined by trypan blue due exclusion as described (Shangary et al., Proc. Natl. Acad. Sci. USA 105:3933 (2008)). Experiments were done in triplicate. To examine apoptosis, cells were stained with Annexin V and PI and analyzed by flow cytometery using an Annexin V-FITC staining kit (Roche Applied Science, Indianapolis, Ind.) according to manufacturer's instructions. Briefly, cells were treated and collected by centrifugation, washed with PBS once and then stained with annexinV-FITC and PI for 15 min at room temperature in the dark. Stained cells were analyzed in a FACS caliber flow cytometer. AnnexinV positive cells are considered as apoptotic cells.

[2] = tested on: PC-3 cells; assay: Cell death by trypan blue dye exclusion; type: cell-based, human
Procedure: as §1

[3] = tested on: caspase-9 and -3/-7 in 2LMP cells; assay: Fluorometric caspase activity assays; type: cell-based, human; details: 5 μM
Procedure: Fluorometric caspase activity assays: Cells were harvested in cell lysis buffer provided by Biovision research products (Mountain View, Calif.). 20 μg of protein was evaluated for caspase activity by incubating with fluorogenic caspase-3 or -9 substrate (EMD Biosciences) in reaction buffer (Biovision). Detection of cleavage of substrate Ac-DEVD-AFC (preferentially cleaved by caspase-3) and Ac-LEHD-AFC (preferentially cleaved by caspase-9) were measured at a λexc=400 nm and λem=505 nm using a Telcan Ultra plate reader (Männedorf, Switzerland). Experiments were performed in triplicate.

[4] = tested on: 2LMP cells; assay: Apoptosis (Annexin V/PI flow cytometry) after siRNA knock-down; type: cell-based, human
Procedure: as §1
(§2) RNA interference: Gene specific double-stranded RNA oligonucleotide targeting Noxa, Puma, c-Myc, HIF1-α, E2F1#2, Bax, Bak, were purchased from Dharmacon RNAi technologies as Sigenome on-targetplus SMARTpool duplex (Lafayette, Colo.). SiRNA of E2F#1 was purchased from Santa Cruz. As a negative control, siRNA against GFP target sequence 5′-[…]-3′ was employed (Qiagen, Valencia, Calif.). Transfections were performed using Lipofectamine RNAiMAX, according to manufacturer's instructions (Invitrogen, Carlsbad, Calif.). (−)-Gossypol was added 24 h after transfection and cells were harvested after 18 h treatment of (−)-gossypol. Three independent knock down experiments were performed for each gene.

[5] = tested on: PC-3 cells; assay: as above; type: cell-based, human
Procedure: as §1, §2

[6] = tested on: DU145 cells; assay: Cell death (trypan blue) after siRNA knock-down; type: cell-based, human
Procedure: as §1
(§3) RNA interference: Gene specific double-stranded RNA oligonucleotide targeting Noxa, Puma, c-Myc, HIF1-α, E2F1#2, Bax, Bak, were purchased from Dharmacon RNAi technologies as Sigenome on-targetplus SMARTpool duplex (Lafayette, Colo.). SiRNA of E2F#1 was purchased from Santa Cruz. As a negative control, siRNA against GFP target sequence 5′-[…]-3′ was employed (Qiagen, Valencia, Calif.). […]

[7] = tested on: MEF Bax/Bak KO cells; assay: Apoptosis (Annexin V/PI flow cytometry) in MEF cells; type: cell-based; details: for cells to undergo apoptosis: 24 h
Procedure: as §1

[8] = tested on: wild-type MEF cells; assay: as above; type: cell-based; details: 24 h
Procedure: as §1

[9] = tested on: Bcl-2 family proteins in 2LMP cells; assay: Western blot of whole cell lysates; type: cell-based, human
Procedure: (§4) Western blot assay: Proteins were harvested in RIPA buffer, then electrophoresed on 4-20% gradient SDS-PAGE gels (Invitrogen, Grand Island, N.Y.) and transferred to PVDF membranes. The membranes were blocked in 5% milk and then incubated with specific primary antibody, followed by secondary antibody. The signals were visualized with the chemiluminescent HRP antibody detection reagent (Deville Scientific, Metuchen, N.J.).

[10] = tested on: Bcl-2 family proteins in PC-3 cells; assay: Western blot of whole cell lysates; type: cell-based, human; details: 10 μM
Procedure: as §4

[11] = tested on: 5 breast (MDA-MB-231, MDA-MB-436, MDA-MB-468, BT-549 and MCF-7) and 3 prostate (22Rv1, DU145 and LNCaP) cancer cell lines; assay: Western blot in 8 additional cancer cell lines; type: cell-based, human; details: treated for 24 h, all 8 cancer cell lines
Procedure: as §4

[12] = tested on: FF (fibroblast) cells; assay: Cell death (trypan blue) and western blot in normal cells; type: cell-based, human
Procedure: as §1, §4

[13] = tested on: HMEC cells; assay: as above; type: cell-based, human
Procedure: as §1, §4

[14] = tested on: MCF-12F cells; assay: as above; type: cell-based, human
Procedure: as §1, §4

[15] = tested on: Noxa mRNA in 2LMP cells; assay: Taqman real-time PCR; type: cell-based, human; details: 10 μm
Procedure: (§5) Real-Time PCR: Total RNA was extracted by RNA miniprep kit (Sigma) from cells treated with or without of (−)-gossypol. cDNA was synthesized from 2 μg of RNA using cDNA reverse transcription kits (Applied Biosystems). Next, Taqman gene expression assays were performed using Noxa (Hs00560402_ml), Puma (Hs00248075_ml), Mcl-1 (Hs00172036_ml) gene specific primers/probe sets for real-time PCR in a ABI7900HT PCR machine. GAPDH (Hs99999905_ml) was used for normalization. Relative quantitation of mRNA was calculated by comparative cycle threshold (Ct) method.

[16] = tested on: Puma mRNA in 2LMP cells; assay: Taqman real-time PCR; type: cell-based, human; details: 10 μm
Procedure: as §5

[17] = tested on: long form of Mcl-1 mRNA in 2LMP cells; assay: Taqman real-time PCR; type: cell-based, human; details: 10 μm, 5-10 h time-points
Procedure: as §5

[18] = tested on: 2LMP cells; assay: WST cell growth assay; type: cell-based, human; details: 4 days
Procedure: as §1

[19] = tested on: MDA-MB-436 cells; assay: WST cell growth assay; type: cell-based, human; details: (−)-gossypol 0.5 and 1 μM, 4 days
Procedure: as §1

[20] = tested on: PC-3 cells; assay: WST cell growth assay; type: cell-based, human; details: 4 days
Procedure: as §1

[21] = tested on: RKO colon cancer cells; assay: Cell death after c-Myc knock-down; type: cell-based; details: p53 wild-type, c-Myc siRNA
Procedure: as §1, §3

[22] = target: Bcl-2 (Homo sapiens, UniProt P10415); details: Wang et al., J. Med. Chem. 49:6139 (2006); cited from earlier work
Chain of Bcl-2 (P10415 whole entry): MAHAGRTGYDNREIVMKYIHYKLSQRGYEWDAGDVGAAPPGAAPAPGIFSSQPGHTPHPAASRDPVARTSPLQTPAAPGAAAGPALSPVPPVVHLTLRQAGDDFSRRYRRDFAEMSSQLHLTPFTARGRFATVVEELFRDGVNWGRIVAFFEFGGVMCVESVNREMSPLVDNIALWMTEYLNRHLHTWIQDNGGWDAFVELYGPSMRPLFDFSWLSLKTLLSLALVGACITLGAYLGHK

[23] = target: Bcl-xL (Homo sapiens, UniProt Q07817); details: Wang et al., J. Med. Chem. 49:6139 (2006); cited from earlier work
Chain of Bcl-xL (Q07817 whole entry): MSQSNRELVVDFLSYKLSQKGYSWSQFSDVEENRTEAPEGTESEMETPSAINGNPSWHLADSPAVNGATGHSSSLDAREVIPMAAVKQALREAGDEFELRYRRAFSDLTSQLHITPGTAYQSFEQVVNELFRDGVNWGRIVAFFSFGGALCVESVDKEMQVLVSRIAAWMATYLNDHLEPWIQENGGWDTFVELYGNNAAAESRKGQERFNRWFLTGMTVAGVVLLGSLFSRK

[24] = target: Mcl-1 (Homo sapiens, UniProt Q07820); details: Wang et al., J. Med. Chem. 49:6139 (2006); cited from earlier work
Chain of Mcl-1 (Q07820 whole entry): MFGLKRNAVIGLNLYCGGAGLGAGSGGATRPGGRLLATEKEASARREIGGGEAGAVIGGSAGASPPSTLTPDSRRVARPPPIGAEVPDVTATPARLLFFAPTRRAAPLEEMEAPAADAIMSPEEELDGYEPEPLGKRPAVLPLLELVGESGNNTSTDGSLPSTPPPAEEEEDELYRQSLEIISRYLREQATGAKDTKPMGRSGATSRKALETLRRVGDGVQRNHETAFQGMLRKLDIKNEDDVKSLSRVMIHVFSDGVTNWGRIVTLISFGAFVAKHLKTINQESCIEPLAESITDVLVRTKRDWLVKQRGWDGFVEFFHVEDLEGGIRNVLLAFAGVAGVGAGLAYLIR

SMILES: Cc1cc2c(C(C)C)c(O)c(O)c(C=O)c2c(O)c1-c1c(C)cc2c(C(C)C)c(O)c(O)c(C=O)c2c1O [(−)-gossypol]
- cells killed ([1]; 2.5 μM, 48 h treatment): 14%
- cells to undergo cell death ([1]; 10 μM, 24 hour-treatment (FIG. 1)): 30-40%
- cells lost their viability ([1]; 10 μM, 24 h time-point): approximately 40%
- cells lost their viability ([1]; 10 μM, 36 h time-point): approximately 70%
- cells lost their viability ([1]; 10 μM, 48 h time-point): ~100%
- cell death at time-points earlier than 12 h ([1]; 10 μM, time course): no significant cell death
- cells to undergo cell death ([2]; 10 μM, 24 hour-treatment): 30-40%
- cells lost their viability ([2]; 10 μM, 24 h time-point): approximately 40%
- cells lost their viability ([2]; 10 μM, 36 h time-point): approximately 70%
- cells lost their viability ([2]; 10 μM, 48 h time-point): ~100%
- cell death at time-points earlier than 12 h ([2]; 10 μM, time course): no significant cell death
- activity of caspase-9 and -3/-7 induced ([3]; 24 h treatment): 7 fold
- activity of caspase-9 and -3/-7 induced ([3]; 48 h treatment): > 60 fold
- apoptosis induction blocked by double knockdown of Bax/Bak ([4]; 10 μM, 18 h, Bax and Bak siRNA): approximately 70%
- cell death induction blocked by knock-down of c-Myc ([4]; 10 μM, c-Myc siRNA): > 70%
- apoptosis induction decreased by knock-down of Puma ([4]; 18 h, Puma siRNA): 30-50%
- apoptosis induction reduced by knock-down of Noxa ([4]; all the concentrations tested, 18 h, Noxa siRNA): > 50%
- cell death induction blocked by knock-down of c-Myc ([5]; 10 μM, c-Myc siRNA): > 70%
- effect of double knockdown of Bax/Bak on apoptosis induction ([5]; 18 h, Bax and Bak siRNA): no effect
- effect of double knockdown of Bax/Bak on apoptosis induction ([6]; 18 h, Bax and Bak siRNA): modestly reduced
- cell death induction upon c-Myc knock-down ([6]; p53-mutated, c-Myc siRNA): effective blockage
- cells to undergo apoptosis ([7]; 5 μM): 11%
- cells to undergo apoptosis ([7]; 10 μM): 13%
- cell death reduced in the Bax/Bak double knock-out ([7]; 20 μM, versus wild-type MEF): 25%
- cells to undergo apoptosis ([8]; 5 μM): 29%
- cells to undergo apoptosis ([8]; 10 μM): 33%
- earliest time of clear Noxa protein induction ([9]; 10 μM): 4 h
- earliest time of dramatic induction of the short forms of Mcl-1 ([9]; 10 μM): 8 h
- time of Puma protein upregulation ([9]; 10 μM): 8 h
- Bcl-xL protein level ([9]; 10 μM, 12 h time-point): significant down-regulation
- lowest concentration with clear induction of Noxa and Puma ([9]; 24-h treatment (FIG. 8A)): 2.5 µM
- earliest time of clear Noxa protein induction [10]: 4 h
- earliest time of dramatic induction of the short forms of Mcl-1 [10]: 8 h
- time of Puma protein upregulation [10]: 8 h
- lowest concentration with significant upregulation of Noxa [11]: 2.5 µM
- Noxa induction ([12]; 24-48 h treatment at 10 μM): not induced
- cell death ([12]; compared to 2LMP cells): minimal cell death
- Noxa induction ([13]; 24-48 h treatment at 10 μM): not induced
- cell death ([13]; compared to 2LMP cells): minimal cell death
- Noxa induction ([14]; 24-48 h treatment at 10 μM): not induced
- cell death ([14]; compared to 2LMP cells): minimal cell death
- mRNA levels of Noxa increased ([15]; 2.5 h time-point): 2.3 fold
- mRNA levels of Noxa increased ([15]; 5 h time-point): 9 fold
- mRNA levels of Noxa increased ([15]; 7.5 h time-point): 24 fold
- mRNA levels of Noxa increased ([15]; 10 h time-point): 37 fold
- Puma mRNA increased ([16]; 2.5 h time-point): 1.4 fold
- Puma mRNA increased ([16]; 5 h time-point): 5.4 fold
- Puma mRNA increased ([16]; 7.5 h time-point): 5 fold
- Puma mRNA increased ([16]; 10 h time-point): 4.3 fold
- increase of the long form of Mcl-1 mRNA [17]: less than 3 fold
- sensitization to ABT-737 ([18]; (−)-gossypol 0.5 and 1 μM): effectively sensitize
- sensitization to ABT-737 [19]: effectively sensitize
- sensitization to ABT-737 ([20]; (−)-gossypol 0.5 and 1 μM): effectively sensitize
- cell death induction upon c-Myc knock-down [21]: effective blockage
- binding affinity [22]: low to sub-micromolar
- binding affinity [23]: low to sub-micromolar
- binding affinity [24]: low to sub-micromolar

SMILES: CN(C)CC[C@H](CSc1ccccc1)Nc1ccc(S(=O)(=O)NC(=O)c2ccc(N3CCN(Cc4ccccc4-c4ccc(Cl)cc4)CC3)cc2)cc1[N+](=O)[O-] [ABT-737, reference compound]
- cell death ([1]; 1 μM): no effect
- cell death ([1]; 2.5 μM): no effect
- cell death induction upon knock-down of Mcl-1 ([1]; Mcl-1 knock-down): sensitizes
- cell death induction upon knock-down of Mcl-1 ([2]; Mcl-1 knock-down): sensitizes
- IC50 ([18]; Homo sapiens, 96 h): > 10 µM
- IC50 ([20]; Homo sapiens, PC-3, 96 h): > 10 µM

— patent US20120302629A1, “BIOMARKERS FOR GOSSYPOL CHEMOTHERAPY AND METHODS OF TREATING DISEASE” (THE REGENTS OF THE UNIVERSITY OF MICHIGAN, priority 2009, published 2012)
